{
  "source": "patent US20230120142A1",
  "about": "“COMPOSITIONS AND METHODS FOR THE TREATMENT OF INTRACELLULAR BACTERIAL INFECTIONS” (Endolytix Technology, Inc., priority 2020, published 2023)",
  "data": [
    {"test_system": "M. abscessus cells", "experiment": "Cell growth assay of ABIα plus antibiotic, Fractional Inhibitory Concentration (FIC) index", "assay_type": "cell-based, Mycobacterium abscessus", "conditions": "antibiotic in combination with ABIα cocktail; FIG. 5", "values": [
      {"smiles": "NCC[C@H](O)C(=O)N[C@@H]1C[C@H](N)[C@@H](O[C@H]2O[C@H](CN)[C@@H](O)[C@H](O)[C@H]2O)[C@H](O)[C@H]1O[C@H]1O[C@H](CO)[C@@H](O)[C@H](N)[C@H]1O", "note": "[amikacin]", "interaction by Fractional Inhibitory Concentration (FIC) index on attenuation of M. abscessus growth": "synergistic effects"},
      {"smiles": "C[C@@H](O)[C@H]1C(=O)N2C(C(=O)[O-])=C(SC3Cn4cnc[n+]4C3)[C@H](C)[C@H]12", "note": "(stereo partly drawn) [biapenem]", "interaction by Fractional Inhibitory Concentration (FIC) index on attenuation of M. abscessus growth": "synergistic effects"},
      {"smiles": "CO[C@@]1(NC(=O)Cc2cccs2)C(=O)N2C(C(=O)O)=C(COC(N)=O)CS[C@@H]21", "note": "[cefoxitin]", "interaction by Fractional Inhibitory Concentration (FIC) index on attenuation of M. abscessus growth": "synergistic effects"}
    ]}
  ]
}
